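Growth conditions: 96-well plates. Treatment: test compound, 48 hours, 5 concentrations. Analysis: linear interpolation between bracketing concentrations; unreached endpoints set to highest concentration. TGI is the concentration that stops growth completely.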
Columns and labels:
Assay in all cases: inhibition of tumour cell growth, NCI panel, 48 h
A498 renal = system: A498 renal
A549 NSCLC = system: A549 NSCLC
ACHN renal = system: ACHN renal
CAKI-1 renal = system: CAKI-1 renal
CCRF-CEM leukemia = system: CCRF-CEM leukemia
COLO 205 colon = system: COLO 205 colon
DLD-1 colon = system: DLD-1 colon
DMS 114 small cell lung = system: DMS 114 small cell lung
DMS 273 small cell lung = system: DMS 273 small cell lung
EKVX NSCLC = system: EKVX NSCLC
HCC-2998 colon = system: HCC-2998 colon
HCT-116 colon = system: HCT-116 colon
HCT-15 colon = system: HCT-15 colon
HL-60(TB) leukemia = system: HL-60(TB) leukemia
HOP-18 NSCLC = system: HOP-18 NSCLC
HOP-62 NSCLC = system: HOP-62 NSCLC
HOP-92 NSCLC = system: HOP-92 NSCLC
HT29 colon = system: HT29 colon
IGROV1 ovarian = system: IGROV1 ovarian
K-562 leukemia = system: K-562 leukemia
KM12 colon = system: KM12 colon
KM20L2 colon = system: KM20L2 colon
LXFL 529 NSCLC = system: LXFL 529 NSCLC
M14 melanoma = system: M14 melanoma
M19-MEL melanoma = system: M19-MEL melanoma
MALME-3M melanoma = system: MALME-3M melanoma
MOLT-4 leukemia = system: MOLT-4 leukemia
NCI-H226 lung = system: NCI-H226 lung
NCI-H23 lung = system: NCI-H23 lung
NCI-H522 lung = system: NCI-H522 lung
OVCAR-3 ovarian = system: OVCAR-3 ovarian
OVCAR-4 ovarian = system: OVCAR-4 ovarian
OVCAR-5 ovarian = system: OVCAR-5 ovarian
OVCAR-8 ovarian = system: OVCAR-8 ovarian
RPMI-8226 leukemia = system: RPMI-8226 leukemia
SF-268 CNS = system: SF-268 CNS
SF-295 CNS = system: SF-295 CNS
SF-539 CNS = system: SF-539 CNS
SK-MEL-2 melanoma = system: SK-MEL-2 melanoma
SK-MEL-28 melanoma = system: SK-MEL-28 melanoma
SK-MEL-5 melanoma = system: SK-MEL-5 melanoma
SK-OV-3 ovarian = system: SK-OV-3 ovarian
SN12C renal = system: SN12C renal
SNB-75 CNS = system: SNB-75 CNS
SNB-78 CNS = system: SNB-78 CNS
SR leukemia = system: SR leukemia
SW-620 colon = system: SW-620 colon
TK-10 renal = system: TK-10 renal
U251 CNS = system: U251 CNS
UACC-257 melanoma = system: UACC-257 melanoma
UACC-62 melanoma = system: UACC-62 melanoma
UO-31 renal = system: UO-31 renal
786-0 renal = system: 786-0 renal
LOX IMVI melanoma = system: LOX IMVI melanoma
NCI-H460 lung = system: NCI-H460 lung
RXF-631 renal = system: RXF-631 renal
SNB-19 CNS = system: SNB-19 CNS
XF 498 CNS = system: XF 498 CNS
RXF 393 renal = system: RXF 393 renal

Measured: TGI

NC(=O)OCc1c(O)c2c(c(O)c1COC(N)=O)C(=O)C=CC2=O
11.8 µM: M19-MEL melanoma
not listed: 786-0 renal | LOX IMVI melanoma | NCI-H460 lung | RXF-631 renal | SNB-19 CNS | XF 498 CNS | RXF 393 renal
> 100 µM: all other assays above

Nc1ncn([C@@H]2C=C(CO)C(O)C2O)c(=O)n1 (stereo partly specified)
not listed: DMS 114 small cell lung | SNB-75 CNS | SR leukemia | RXF 393 renal
> 100 µM: all other assays above

Cc1ccc(S(=O)(=O)OC(C=O)C(O)C(O)COC(c2ccccc2)(c2ccccc2)c2ccccc2)cc1 (stereo unspecified)
30.4 µM: UO-31 renal
10.5 µM: RXF-631 renal
30.3 µM: RXF 393 renal
26.5 µM: OVCAR-8 ovarian
26.3 µM: NCI-H522 lung
25.7 µM: LXFL 529 NSCLC
46.5 µM: MOLT-4 leukemia
34.7 µM: OVCAR-5 ovarian
28.7 µM: ACHN renal
27.1 µM: HCT-15 colon
33.3 µM: A549 NSCLC
26.9 µM: NCI-H460 lung
25.9 µM: UACC-257 melanoma
28.1 µM: OVCAR-3 ovarian
28.9 µM: SK-MEL-5 melanoma | SN12C renal | UACC-62 melanoma
35.9 µM: SK-MEL-28 melanoma
29.2 µM: XF 498 CNS
33.7 µM: MALME-3M melanoma
35 µM: K-562 leukemia
36.9 µM: RPMI-8226 leukemia
29.4 µM: NCI-H226 lung | SNB-75 CNS
30.1 µM: M14 melanoma
24.7 µM: SR leukemia
26.1 µM: M19-MEL melanoma
33.8 µM: DMS 114 small cell lung
28.4 µM: SK-OV-3 ovarian
24.8 µM: SF-295 CNS
29.9 µM: SK-MEL-2 melanoma
24.3 µM: HCC-2998 colon
31.7 µM: SNB-19 CNS
27.4 µM: KM20L2 colon
32.8 µM: OVCAR-4 ovarian
29.5 µM: IGROV1 ovarian
30.5 µM: HCT-116 colon
32.6 µM: A498 renal
37.9 µM: DMS 273 small cell lung
36.6 µM: CAKI-1 renal
27.3 µM: 786-0 renal
30.8 µM: HOP-62 NSCLC | SF-539 CNS
34.5 µM: EKVX NSCLC
24.2 µM: KM12 colon
24.9 µM: HT29 colon
27.9 µM: U251 CNS
35.2 µM: LOX IMVI melanoma | SF-268 CNS | SW-620 colon

O=c1[nH]cnc2c1nnn2C1C=C(CO)C(O)C1O (stereo unspecified)
60.1 µM: DMS 273 small cell lung
81.5 µM: LOX IMVI melanoma
not listed: HL-60(TB) leukemia | MALME-3M melanoma | NCI-H522 lung | SW-620 colon | RXF-631 renal
> 100 µM: all other assays above

Reference: PubChem BioAssay (NCI)
